Test results reported in article PMC7714403 (JCI Insight, 2020).
Where two headings read alike, the source gives them in different places.

What was measured:
MOLM13-RES-Luc+ cells = assay: MOLM13-RES-Luc+ xenograft model; type: in vivo, NSG mice; conditions: 3 weeks; for Median survival: TP-0903 60mg/kg or gilteritinib 30 mg/kg once daily 5 days/week
Experimental: Engraftment and growth of leukemic cells were monitored by noninvasive bioluminescence imaging in cell line xenograft models, as previously done ([47]). Details on the cell engraftment and dosing in mouse models are provided in the Supplemental Methods.
Cell viability of primary samples
HS5-GFP human bone marrow stromal cells were plated and cultured for 72 hours to near confluence.
MOLM13 cells were then seeded onto HS5-GFP cells to establish a co-culture. Twenty-four hours later, cells were treated with increasing concentrations of drug for an additional 72 hours. MOLM13 and HS5-GFP cells were then separated and MTT assay s were performed for cell viability assessment of each cell population.
For murine or human primary AML cells, 100,000 cells/well were plated in a 96-well plate and treated with increasing concentrations of drug. Cell viability, via trypan blue, was measured every 24 hours. If the viability fell below 50% or at 72 hours of treatment, whichever came earlier, cell viability of each plate was measured via CellTiter-Glo. Primary human AML cells were obtained from the OSUCCC Leukemia Tissue Bank Shared […]
Primary AML samples were analyzed by targeted gene sequencing of 80 genes, as previously described (1). Samples were pooled and analyzed on a MiSeq system using the Illuminia MiSeq Reagent Kit v3. […]
Luc+ or MOLM13-Res -Luc+ cells, 0.5 million OCI-AML3 -Luc+ cells, and 10,000 Ba/F3-FLT3-ITD/F691L-GFP+ cells. Weekly tumor engraftment of cell line xenograft models were assessed after injection of D-luciferin (150mg/kg i.p.; Gold Biotechnology, Inc, St. Louis, MO) on Xenogen IVIS-200 imaging system (Perkin Elmer, Waltham, MA) or GFP monitoring by peripheral blood via BD LSR II flow cytometer (BD Biosciences, San Jose, CA). Signal intensity was analyzed using Living Image Software (PerkinElmer) or FlowJo v10.0.08 software (FlowJo, LLC, Ashland, OR). […]
At indicated time points, cells were collected and washed with PBS. CD11b expression was measured using anti-CD11b -APC antibody (BioLegend, San Diego, CA). […]

[1] = tested on: MOLM13 and MOLM13 NRAS G12D cells; assay: Cell growth of inducible MOLM13 NRAS G12D cells; type: cell-based, human; conditions: 15 nM, doxycycline induction
Experimental: with DAPI in 0.1% Triton-X (ThermoFisher Scientific) PBS for 30 minutes at room temperature and protected from light. The DNA content was determined using a BD LSR II flow cytometer. The cell cycle distribution was […]
Cells that grow out of the CFU assays were washed with PBS twice to remove MethoCult. 100,000 cells were spun down on the slides using cytology funnels (Fisherbrand) in a cytocentrifuge at 600 rpm for 5 minutes.
Slides were then air dried overnight and stained with Hema 3 Stain Set (Thermo Fisher) according to manufacturer’s instructions. Images of the slides were taken at the Campus Microscopy & Imaging Facility Shared Resources here at OSUCCC using the light microscopy Zeiss Axioskop system.
Inducible MOLM13 NRAS G12D Cells
NRAS cDNA was cloned into pLVX -TetOne-Puro vector (Takara Bio USA). Site -directed mutagenesis to generate G12D mutation was carried out using the QuikChange II XL Site-Directed Mutagenesis Kit (Aligent) .
Mutagenesis primers were designed using the QuikChange Primer Design program and synthesized by Integrated DNA Technologies (IDT). Lentiviral production was carried out using the Lenti-X Packaging Single Shots (Takara Bio USA) according to manufactures protocol. Viral supernatant was then concentrated using PEG-it virus precipitation solution (System Biosciences). […]
Cells were counted every 2-3 days via Trypan […]

MOLM13 cells = assay: MOLM13 viability ± cytokines (MTT); conditions: Homo sapiens
[2] = MOLM-13, read-out: IC50 viability, MOLM13 + GM-CSF
[3] = MOLM-13, read-out: IC50 viability, MOLM13 + IL3
[4] = MOLM-13, read-out: IC50 viability, MOLM13 + IL3, IL6, GM-CSF
[5] = MOLM-13, read-out: IC50 viability, MOLM13 + IL6
[6] = MOLM-13, read-out: IC50 viability, MOLM13, no cytokine

| Structure (SMILES) | Median survival (MOLM13-RES-Luc+ cells) | Cell growth [1] | IC50 (MOLM13 cells; [2]) | IC50 (MOLM13 cells; [3]) | IC50 (MOLM13 cells; [4]) | IC50 (MOLM13 cells; [5]) | IC50 (MOLM13 cells; [6]) | Leukemic cell outgrowth compared with vehicle or gilteritinib (MOLM13-RES-Luc+ cells; 60mg/kg once daily 5 days/week) |
| --- | --- | --- | --- | --- | --- | --- | --- | --- |
| CCc1nc(C(N)=O)c(Nc2ccc(N3CCC(N4CCN(C)CC4)CC3)c(OC)c2)nc1NC1CCOCC1 [Gilteritinib, gilteritinib] | 34 days | resistant phenotype | 14.8 nM | 11.9 nM | 18.4 nM | 10.7 nM | 7.9 nM | – |
| CN1CCN(Cc2ccc(Nc3ncc(Cl)c(Nc4ccccc4S(=O)(=O)N(C)C)n3)cc2)CC1 [TP-0903] | 31 days | complete loss of viable cells | 10.1 nM | 6.9 nM | 8.1 nM | 9.4 nM | 7.4 nM | significantly reduced |
